Experimental data published in US20030036518A1, “ARTIFICIAL POLYMERIC MEMBRANE STRUCTURE, METHOD FOR PREPARING SAME, METHOD FOR PREPARING THIS POLYMER, PARTICLE AND FILM CONTAINING THIS STRUCTURE” (priority 1996, published 2003).

Columns and labels:
Format in all cases: physicochemical
[1] = Association of doxorubicin with small-size porous particles; conditions: 5 mg doxorubicin, 5 mg small-size porous particles, 2 h
Method: The procedure was as in example 10, but an attempt was made to prepare smaller sized porous particles. 1 g of SEPHADEX® C25 porous matrix was dispersed in 100 ml of distilled water and the preparation was ground for 15 min with a helical mill. The preparation was then centrifuged at 3000 g for 10 min and the supernatant was recovered and then subjected to further centrifuging at 25000 g for 45 min. The supernatant was removed, the cake was put back into suspension and 50 mg of a dry product were obtained following freeze-drying. The size of the particles obtained, measured by a particle analyzer, was between 300 and 500 nm.
5 mg of these small-size porous particles were dispersed in 5 ml of distilled water. 5 mg of doxorubicin were added and the whole was stirred for 2 h. The concentration of doxorubicin not associated with the particles was determined by ultrafiltration of an aliquot of the suspension through an ultrafiltration membrane of which the separation threshold was 50000, and the concentration of free doxorubicin was measured by UV spectrometry at 480 nm. […] These were then used as they were without supplementary purification.

[2] = Association of doxorubicin with porous particles; conditions: 5 mg doxorubicin hydrochloride, 5 mg SEPHADEX® C25, 2 h at 4° C.
Method: The overall procedure was as in example 7, but incorporating doxorubicin (C27H29NO11,PM543, 53) in place of haemoglobin, 5 mg of doxorubicin hydrochloride being dissolved in 1 ml of distilled water and incubated with 5 mg of porous particles (SEPHADEX® C25) substituted with carboxymethyl groups. The pore size of the particles was such that molecules with a maximum molecular weight of 25000 could penetrate. The suspension was stirred for 2 h at 4° C. with a planetary stirrer. It was then decanted and the free doxorubicin concentration was measured by UV spectrophotometry at 480 nm. […] The non-absorbed doxorubicin fraction was removed by decanting and washing the cake with distilled water.

[3] = Absorption of haemoglobin on the porous substrate; conditions: 20 mg haemoglobin, 5 mg SEPHADEX® SPC50, pH 6.5, 24 h at 4° C.
Method: 5 mg of porous particles (SEPHADEX® SPC50) with a diameter of 150 μm substituted with sulfopropyl groups and having a pore size sufficient to allow the penetration of molecules with a maximum molecular weight of 250000, were dispersed in 5 ml of a 10 mM bi-tri buffer, of pH 6.5 (where the haemoglobin is cationic and is attracted inside the anionic sites of the porous particles). 20 mg of haemoglobin, extracted from human erythrocytes by the lysis method in a hypotonic medium, were then added to this dispersion. The preparation was stirred for 24 h at 4° C. on a planetary stirrer. The particles were then decanted and the quantity present in the supernatant was determined by UV spectrometry at 410 nm. […] The non-absorbed haemoglobin was removed by decanting the particles and washing them with a 10 mM bi-tri buffer.

| doxorubicin associated with the particles [1] | doxorubicin associated with the particles [2] | Compound | haemoglobin present inside the particles [3] |
| --- | --- | --- | --- |
| more than 98% | more than 97% | COc1cccc2c1C(=O)c1c(O)c3c(c(O)c1C2=O)C[C@@](O)(C(=O)CO)C[C@@H]3O[C@H]1C[C@H](N)[C@H](O)[C@H](C)O1 [doxorubicin] |  |
|  |  | haemoglobin: haemoglobin extracted from human erythrocytes by the lysis method in a hypotonic medium | more than 98% |
